Values quoted from earlier work in patent publication US20080200404A1, “Novel Antimalarial 9A-Carbamoyl-Aminoalkyl and 9A-Thiocarbamoyl-Aminoalkyl Azalides” (priority 2005, published 2008).

Key:
Plasmodium vivax = conditions: non-immune patients, as compared to controls; cited from earlier work
Plasmodium cynomolgi = conditions: rhesus monkey; cited from earlier work
Plasmodium falciparum = conditions: non-immune patients, as compared to controls; cited from earlier work
[1] = tested on: Plasmodium yoelli nigeriensis; conditions: cited from earlier work
Plasmodium berghei = conditions: cited from earlier work

For `CC[C@H]1OC(=O)[C@H](C)[C@@H](O[C@H]2C[C@@](C)(OC)[C@@H](O)[C@H](C)O2)[C@H](C)[C@@H](O[C@@H]2O[C@H](C)C[C@H](N(C)C)[C@H]2O)[C@](C)(O)C[C@@H](C)CN(C)[C@H](C)[C@@H](O)[C@]1(C)O` [azithromycin], the “prophylactic efficacy for Plasmodium vivax” value (Plasmodium vivax) is listed as 98.9%, the “efficacy in monkey model” value (Plasmodium cynomolgi) is listed as “active” and the “prophylactic efficacy for Plasmodium falciparum” value (Plasmodium falciparum) is listed as 71.6%.

In the case of midecamycinin, the “activity in mouse model” value [1] is listed as “active”, the “efficacy in monkey model” value (Plasmodium cynomolgi) is listed as “no efficacy” and the “activity in mouse model” value (Plasmodium berghei) is listed as “active”.
